Measured values as given in patent US10934310B2, “Inhibitors of Bruton's tyrosine kinase and method of their use” (JANSSEN PHARMACEUTICA NV, priority 2015, dated 2021).

The compounds below were run against unphosphorylated-BTK kinase domain (UP-BTK), GST-tagged human BTK (389-659aa) (Homo sapiens (Human), UniProt Q06187) (assay: BTK Kinase Lanthascreen Binding Assay). Conditions: compound, 50 nM Tracer 236, 2 nM anti-GST antibody, 60 minutes; pIC50 = negative log of the IC50 in molar.
Experimental: BTK Kinase Lanthascreen Binding Assay:
A BTK kinase lanthascreen binding assay monitors compound binding to unphosphorylated-BTK kinase domain (UP-BTK), by competing with a fluorescent labeled tracer. […] Data were analyzed using Xlfit™ version 5.3 from ID Business Solutions (Guildford), Microsoft Excel add-in. pIC50 refers to the negative log of the IC50 in molar.

Sequence of unphosphorylated-BTK kinase domain (UP-BTK), GST-tagged human BTK (389-659aa) (Q06187 389-659): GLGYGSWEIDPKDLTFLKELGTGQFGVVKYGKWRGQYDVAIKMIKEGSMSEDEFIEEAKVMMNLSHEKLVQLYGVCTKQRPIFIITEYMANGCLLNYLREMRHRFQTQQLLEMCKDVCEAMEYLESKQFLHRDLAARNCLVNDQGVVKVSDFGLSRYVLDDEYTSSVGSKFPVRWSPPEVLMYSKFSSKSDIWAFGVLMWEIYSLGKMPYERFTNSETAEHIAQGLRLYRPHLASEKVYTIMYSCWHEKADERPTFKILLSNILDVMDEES

SMILES | BTK_I_binding pIC50
CC(=O)N[C@@H]1CCCC[C@@H]1NC(=O)c1sc2nccc3c2c1NC(=O)N3c1ccc(Oc2ccccc2)cc1C [Example 44, N-((1S,2R)-2-Acetamidocyclohexyl)-5-(2-methyl-4-phenoxyphenyl)-4-oxo-4,5-dihydro-3H-1-thia-3,5,8-triazaacenaphthylene-2-carboxamide] | 6.17
CCC(=O)N[C@H]1CCC[C@@H]1NC(=O)c1sc2nccc3c2c1NC(=O)N3c1ccc(Oc2ccccc2)cc1C [Example 45, 5-(2-Methyl-4-phenoxyphenyl)-4-oxo-N-((1S,2S)-2-propionamidocyclopentyl)-4,5-dihydro-3H-1-thia-3,5,8-triazaacenaphthylene-2-carboxamide] | 6.14
CC(=O)N[C@@H]1CCCC[C@H]1NC(=O)c1sc2nccc3c2c1NC(=O)N3c1ccc(Oc2ccccc2)cc1C [Example 47, N-((1R,2R)-2-Acetamidocyclohexyl)-5-(2-methyl-4-phenoxyphenyl)-4-oxo-4,5-dihydro-3H-1-thia-3,5,8-triazaacenaphthylene-2-carboxamide] | 6.12
CN[C@@H]1CCCC[C@@H]1NC(=O)c1sc2nccc3c2c1NC(=O)N3c1ccc(Oc2ccccc2)cc1C [Example 50, 5-(2-Methyl-4-phenoxyphenyl)-N-((1S,2R)-2-(methylamino)cyclohexyl)-4-oxo-4,5-dihydro-3H-1-thia-3,5,8-triazaacenaphthylene-2-carboxamide] | 6.07
CCC(=O)N[C@@H]1CCCC[C@H]1NC(=O)c1sc2nccc3c2c1NC(=O)N3c1ccc(Oc2ccccc2)cc1C [Example 52, 5-(2-Methyl-4-phenoxyphenyl)-4-oxo-N-((1R,2R)-2-propionamidocyclohexyl)-4,5-dihydro-3H-1-thia-3,5,8-triazaacenaphthylene-2-carboxamide] | 6.01
Cc1cc(Oc2ccccc2)ccc1N1C(=O)Nc2c(C(=O)N[C@H]3CCCC[C@@H]3NC=O)sc3nccc1c23 [Example 54, N-((1S,2S)-2-Formamidocyclohexyl)-5-(2-methyl-4-phenoxyphenyl)-4-oxo-4,5-dihydro-3H-1-thia-3,5,8-triazaacenaphthylene-2-carboxamide] | 5.90
CC(=O)N[C@H]1CCCC[C@@H]1NC(=O)c1sc2nccc3c2c1NC(=O)N3c1ccc(Oc2ccccc2)cc1C [Example 55, N-((1S,2S)-2-Acetamidocyclohexyl)-5-(2-methyl-4-phenoxyphenyl)-4-oxo-4,5-dihydro-3H-1-thia-3,5,8-triazaacenaphthylene-2-carboxamide] | 5.88
CC(=O)N[C@@H]1CCC[C@@H]1NC(=O)c1sc2nccc3c2c1NC(=O)N3c1ccc(Oc2ccccc2)cc1C [Example 57, N-((1S,2R)-2-Acetamidocyclopentyl)-5-(2-methyl-4-phenoxyphenyl)-4-oxo-4,5-dihydro-3H-1-thia-3,5,8-triazaacenaphthylene-2-carboxamide] | 5.65
CCC(=O)N[C@@H]1CCC[C@@H]1NC(=O)c1sc2nccc3c2c1NC(=O)N3c1ccc(Oc2ccccc2)cc1C [Example 59, 5-(2-Methyl-4-phenoxyphenyl)-4-oxo-N-((1S,2R)-2-propionamidocyclopentyl)-4,5-dihydro-3H-1-thia-3,5,8-triazaacenaphthylene-2-carboxamide] | 5.46
CCC(=O)N[C@H]1CCCC[C@@H]1NC(=O)c1sc2nccc3c2c1NC(=O)N3c1ccc(Oc2ccccc2)cc1C [Example 60, 5-(2-Methyl-4-phenoxyphenyl)-4-oxo-N-((1S,2S)-2-propionamidocyclohexyl)-4,5-dihydro-3H-1-thia-3,5,8-triazaacenaphthylene-2-carboxamide] | 5.40
CNC1CCC(NC(=O)c2sc3nccc4c3c2NC(=O)N4c2ccc(Oc3ccccc3)cc2C)CC1 (centres unmarked) [Example 63, 5-(2-Methyl-4-phenoxyphenyl)-N-(4-(methylamino)cyclohexyl)-4-oxo-4,5-dihydro-3H-1-thia-3,5,8-triazaacenaphthylene-2-carboxamide] | 6.85
CC(=O)N[C@H]1CC[C@@H](NC(=O)c2sc3nccc4c3c2NC(=O)N4c2ccc(Oc3ccccc3)cc2C)CC1 [Example 64, N-((1S,4S)-4-Acetamidocyclohexyl)-5-(2-methyl-4-phenoxyphenyl)-4-oxo-4,5-dihydro-3H-1-thia-3,5,8-triazaacenaphthylene-2-carboxamide] | 7.28

Continued, values first:

BTK_I_binding pIC50 | SMILES
6.23 | Cc1cc(Oc2ccccc2)ccc1N1C(=O)Nc2c(C(=O)N[C@@H]3CCCC[C@H]3N(C)C)sc3nccc1c23 [Example 43, N-((1R,2R)-2-(Dimethylamino)cyclohexyl)-5-(2-methyl-4-phenoxyphenyl)-4-oxo-4,5-dihydro-3H-1-thia-3,5,8-triazaacenaphthylene-2-carboxamide]
6.14 | CN[C@H]1CCC[C@@H]1NC(=O)c1sc2nccc3c2c1NC(=O)N3c1ccc(Oc2ccccc2)cc1C [Example 46, 5-(2-Methyl-4-phenoxyphenyl)-N-((1S,2S)-2-(methylamino)cyclopentyl)-4-oxo-4,5-dihydro-3H-1-thia-3,5,8-triazaacenaphthylene-2-carboxamide]
6.12 | Cc1cc(Oc2ccccc2)ccc1N1C(=O)Nc2c(C(=O)N[C@H]3CCCC[C@H]3N(C)C)sc3nccc1c23 [Example 48, N-((1S,2R)-2-(Dimethylamino)cyclohexyl)-5-(2-methyl-4-phenoxyphenyl)-4-oxo-4,5-dihydro-3H-1-thia-3,5,8-triazaacenaphthylene-2-carboxamide]
6.12 | Cc1cc(Oc2ccccc2)ccc1N1C(=O)Nc2c(C(=O)N[C@H]3CCCC[C@H]3N)sc3nccc1c23 [Example 49, N-((1S,2R)-2-Aminocyclohexyl)-5-(2-methyl-4-phenoxyphenyl)-4-oxo-4,5-dihydro-3H-1-thia-3,5,8-triazaacenaphthylene-2-carboxamide]
6.01 | Cc1cc(Oc2ccccc2)ccc1N1C(=O)Nc2c(C(=O)N[C@H]3CCC[C@H]3N(C)C)sc3nccc1c23 [Example 51, N-((1S,2R)-2-(Dimethylamino)cyclopentyl)-5-(2-methyl-4-phenoxyphenyl)-4-oxo-4,5-dihydro-3H-1-thia-3,5,8-triazaacenaphthylene-2-carboxamide]
5.95 | Cc1cc(Oc2ccccc2)ccc1N1C(=O)Nc2c(C(=O)N[C@H]3CCC[C@H]3N)sc3nccc1c23 [Example 53, N-((1S,2R)-2-Aminocyclopentyl)-5-(2-methyl-4-phenoxyphenyl)-4-oxo-4,5-dihydro-3H-1-thia-3,5,8-triazaacenaphthylene-2-carboxamide]
5.51 | Cc1cc(Oc2ccccc2)ccc1N1C(=O)Nc2c(C(=O)N[C@H]3CCCC[C@@H]3N)sc3nccc1c23 [Example 58, N-((1S,2S)-2-Aminocyclohexyl)-5-(2-methyl-4-phenoxyphenyl)-4-oxo-4,5-dihydro-3H-1-thia-3,5,8-triazaacenaphthylene-2-carboxamide]
5.29 | Cc1cc(Oc2ccccc2)ccc1N1C(=O)Nc2c(C(=O)N[C@H]3CCCC[C@@H]3N(C)C)sc3nccc1c23 [Example 62, N-((1S,2S)-2-(Dimethylamino)cyclohexyl)-5-(2-methyl-4-phenoxyphenyl)-4-oxo-4,5-dihydro-3H-1-thia-3,5,8-triazaacenaphthylene-2-carboxamide]
